Measured values as given in patent US20080045580A1, “Novel Isoxazole Compounds Having Ppar Agonist Activity” (DR REDDY'S LABORATORIES LIMITED, priority 2004, published 2008).
Values joined by “and” are separate entries in the source; they are usually repeats but may differ in a detail not shown here. Equal entries are not always repeated. Each block holds one compound with its values, some of them ahead of it.

Key:
human PPARα = biological target: T1, human PPARα (Homo sapiens, UniProt Q07869); experiment: in vitro PPARα transactivation (GAL4-LBD luciferase reporter in HEK-293 cells); type: cell-based
T1 construct: expressed in transfected cells; host or cells: HEK-293
T1 sequence (Q07869 239-466 limits assumed): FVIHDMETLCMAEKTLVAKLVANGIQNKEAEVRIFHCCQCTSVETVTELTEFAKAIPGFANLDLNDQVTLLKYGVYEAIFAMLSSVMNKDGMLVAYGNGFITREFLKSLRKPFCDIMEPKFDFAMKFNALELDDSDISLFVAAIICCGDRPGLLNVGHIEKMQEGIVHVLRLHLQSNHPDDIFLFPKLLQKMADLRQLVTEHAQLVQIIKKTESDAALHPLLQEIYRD
Description: Generally, suitable PPAR agonists are believed to be useful for attenuating and/or treatment of diabetic dyslipidemia, metabolic syndrome, diabetes, cardiovascular disease, and obesity. The following procedure was used for in vitro determination of PPARα, γ and δ transactivation.
(§1) The ligand binding domain of human PPARγ1, PPARα or PPARδ was fused to the C-terminal end of DNA binding domain of yeast transcription factor GAL4 in eukaryotic expression vector. Using SuperFect (Qiagen), HEK-293 cells were transfected with this plasmid and a reporter plasmid harboring the luciferase gene driven under the control of 5 tandem GLA4 response elements. In some experiments, pAdVantage vector (Promega) was used to enhance luciferase expression. Compounds were added approximately 48 hours after transfection at various concentrations and incubated overnight. The cells were lysed and the luciferase activity was measured using the LucLite kit in Top Count (Packard). Luciferase activity was expressed as fold activation relative to untreated cells in the same experiment.

human PPARγ1 = biological target: T2, human PPARγ1 (Homo sapiens, UniProt P37231); experiment: in vitro PPARγ transactivation (GAL4-LBD luciferase reporter in HEK-293 cells); type: cell-based
T2 construct: expressed in transfected cells; host or cells: HEK-293
T2 sequence (P37231 238-503 limits assumed): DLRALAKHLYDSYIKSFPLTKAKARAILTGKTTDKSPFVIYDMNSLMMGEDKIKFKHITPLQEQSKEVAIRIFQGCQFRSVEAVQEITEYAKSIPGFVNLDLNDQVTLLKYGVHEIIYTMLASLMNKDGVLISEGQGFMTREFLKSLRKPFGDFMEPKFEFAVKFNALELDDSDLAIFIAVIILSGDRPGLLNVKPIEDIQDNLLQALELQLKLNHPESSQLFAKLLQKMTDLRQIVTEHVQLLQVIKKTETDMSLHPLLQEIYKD
Description: The following procedure was used for in vitro determination of PPARα, γ and δ transactivation.
as §1

[1] = system: hypercholesterolemic Male Sprague Dawley rats; experiment: lipid lowering in hypercholesterolemic Sprague Dawley rats; type: in vivo; conditions: hypercholesterolemic SD rats, 3 mg/kg orally for 3 days; for % Reduction TG: plasma triglycerides; for % Reduction TC: total cholesterol; for HDL % increase: values represent % increase
Protocol: Male Sprague Dawley rats (NIN stock) were bred in DRL animal house. Animals were maintained under 12 hour light and dark cycle at 25±1° C. Rats of 180-200 gram body weight range were used for the experiment. Animals were made hypercholesterolemic by feeding 2% cholesterol and 1% sodium cholate mixed with standard laboratory chow (NIN) for 6 days. Throughout the experimental period the animals were maintained on the same diet. Control rats were treated with vehicle alone (0.25% CMC; 10 ml/kg). Blood samples were collected in fed state 1 hour after drug administration on 0 and 3 days of treatment from the retro-orbital sinus through heparinized capillary tubes containing EDTA. After centrifugation, plasma sample was separated for total cholesterol, HDL and plasma triglyceride measurement. Measurement of total cholesterol, HDL and plasma triglyceride was done using a Vitalab Selectra autoanalyser (Merck). HDL was measured using a commercial kit. LDL and VLDL cholesterol were calculated from the data obtained for total cholesterol, HDL and plasma triglyceride.
The percent reductions in plasma triglycerides (TG)/total cholesterol (TC) were calculated as described in Example 55. The levels of LDL and VLDL cholesterol were calculated according to the following formulas: LDL cholesterol in mg/dl=[Total cholesterol−HDL cholesterol−Triglyceride/5] VLDL cholesterol in mg/dl=[Total cholesterol−HDL cholesterol−LDL cholesterol]

Male Swiss albino mice = experiment: plasma triglyceride lowering in Swiss albino mice; type: in vivo; conditions: plasma triglycerides
Protocol: Male Swiss albino mice (SAM) were obtained from National Institute Nutrition (NIN, Hyderabad, India) and housed in Dr. Reddy's Laboratories Ltd (DRL) animal house. All these animals were maintained under 12 hour light and dark cycle at 25±1° C. Animals were given standard laboratory chow (NIN, Hyderabad, India) and water, ad libitum. Mice of 20-25 grams body weight range were used. See Olivier, et al., Atherosclerosis, 1988, 70:107-114, incorporated herein by reference in its entirety. The test compounds were administered orally to mice at the doses shown in the following in table for 6 days. […] After centrifugation, plasma was separated for plasma triglyceride and total cholesterol measurement. See Wieland, Methods of Enzymatic Analysis, Bergermeyer, ed., 1963, 211-214; Trinder, Ann. Clin. Biochenz., 1969, 6:24-27, incorporated herein by reference in their entireties. Measurement of cholesterol and plasma triglyceride was done using a […] autoanalyser (Merck). The percent reductions in plasma triglycerides (TG)/total cholesterol were calculated according to the following formula: [formula] OC=Zero day control group value OT=Zero day treated group value TC=Test day control group value TT=Test day treated group value.

melting point: 98 to 100 °C
SMILES: CCC(C)(Oc1ccc(OCCCc2cc(-c3ccc(C)cc3)no2)cc1)C(=O)O (stereo not shown) [Example 32, 2-Methyl-2-{4-[3-(3-(4-methylphenyl)isoxazol-5-yl)propoxy]phenoxy}butyric acid]

melting point: 110 to 112 °C
SMILES: CCC(C)(Oc1ccc(OCCCc2cc(-c3ccc(C(F)(F)F)cc3)no2)cc1)C(=O)O (stereo not shown) [Example 21]

melting point: 138 to 140 °C
SMILES: CCC(C)(Oc1ccc(OCc2cc(-c3ccc(C)cc3)no2)cc1)C(=O)O (stereo not shown) [Example 30, 2-Methyl-2-[4-(3-(4-methylphenyl)isoxazol-5-ylmethoxy)phenoxy]butyric acid]

melting point: 83 to 85 °C | PPARα luciferase fold activation relative to untreated cells (human PPARα; 1 μM): 1.2 | PPARα luciferase fold activation relative to untreated cells (human PPARα; 10 μM): 1.0 | PPARα luciferase fold activation relative to untreated cells (human PPARα; 50 μM): 1.0 | PPARγ luciferase fold activation relative to untreated cells (human PPARγ1; 1 μM): 1.4 | PPARγ luciferase fold activation relative to untreated cells (human PPARγ1; 10 μM): 2.4 | PPARγ luciferase fold activation relative to untreated cells (human PPARγ1; 50 μM): 2.4
SMILES: CCOC(=O)C1(Oc2ccc(OCc3cc(-c4ccccc4)no3)cc2)CCCC1 [Example 2]

melting point: 106 to 108 °C
SMILES: Cc1cc(SCc2cc(-c3ccc(C(F)(F)F)cc3)no2)ccc1OC(C)(C)C(=O)O [Example 13]

melting point: 118 to 120 °C
SMILES: CCC(C)(Oc1ccc(OC/C=C/c2cc(-c3ccccc3)no2)cc1)C(=O)O (stereo not shown) [Example 20]

melting point: 166 to 168 °C
SMILES: CC(C)(Oc1ccc(OCc2cc(-c3ccc(C(F)(F)F)cc3)no2)cc1)C(=O)O [Example 12]

melting point: 100 to 102 °C
SMILES: CCC(C)(Oc1ccc(OCc2cc(-c3ccc(C)cc3)no2)cc1)C(=O)OC (stereo not shown) [Example 29, 2-Methyl-2-[4-(3-(4-methylphenyl)isoxazol-5-ylmethoxy)phenoxy]butyric acid, methyl ester]

melting point: 121 to 122 °C
SMILES: CC[C@](C)(Oc1ccc(OCCCc2cc(-c3ccccc3)no2)cc1)C(=O)O [Example 16]

melting point: 128 to 130 °C
SMILES: CCC(C)(Oc1ccc(OCc2cc(-c3ccc([N+](=O)[O-])cc3)no2)cc1)C(=O)O (stereo not shown) [Example 22]

melting point: 118 to 120 °C
SMILES: CCC(C)(Oc1ccc(OCc2cc(-c3ccc(F)cc3)no2)cc1)C(=O)O (stereo not shown) [Example 23]

melting point: 168 to 170 °C
SMILES: CC(C)(Oc1ccc(OCc2cc(-c3ccc(-c4ccccc4)cc3)no2)cc1)C(=O)O [Example 18]

melting point: 130 to 132 °C
SMILES: CCC(C)(Oc1ccc(OCCCc2cc(-c3ccc(Cl)cc3)no2)cc1)C(=O)O (stereo not shown) [Example 34, 2-Methyl-2-{4-[3-(3-(4-chlorophenyl)isoxazol-5-yl)propoxy]phenoxy}butyric acid]

SMILES: Cc1cccc(Nc2cc(Cl)nc(SCC(=O)O)n2)c1C [Wyeth 14643, reference compound]
PPARα luciferase fold activation relative to untreated cells (human PPARα; 10 μM): 1.7 and 1.6 and 1.4 and 2.5 and 2.7 and 2.4 | PPARα luciferase fold activation relative to untreated cells (human PPARα; 50 μM): 3.4 and 5.0 and 4.2 and 5.2 and 4.1 and 6.1 and 4.6 and 4.0

melting point: 120 to 122 °C
SMILES: CC(C)(Sc1ccc(OCc2cc(-c3ccc(C(F)(F)F)cc3)no2)cc1)C(=O)O [Example 14]

melting point: 132 to 134 °C
SMILES: CCC(C)(Oc1ccc(OCc2cc(-c3ccc(OCc4ccccc4)cc3)no2)cc1)C(=O)O (stereo not shown) [Example 3]

melting point: 142 to 144 °C
SMILES: CCC(C)(Oc1ccc(OCc2cc(-c3ccc(O)cc3)no2)cc1)C(=O)O (stereo not shown) [Example 4]

PPARα luciferase fold activation relative to untreated cells (human PPARα; 1 μM): 1.5 | PPARα luciferase fold activation relative to untreated cells (human PPARα; 10 μM): 4.8 | PPARα luciferase fold activation relative to untreated cells (human PPARα; 50 μM): 5.9 | PPARγ luciferase fold activation relative to untreated cells (human PPARγ1; 1 μM): 2.0 | PPARγ luciferase fold activation relative to untreated cells (human PPARγ1; 10 μM): 2.8 | PPARγ luciferase fold activation relative to untreated cells (human PPARγ1; 50 μM): 12.4
SMILES: CC(C)(Oc1ccc(CCCc2cc(-c3ccccc3)no2)cc1)C(=O)O [Example 28, 2-methyl-2-{4-[3-(3-phenylisoxazol-5-yl)propyl]phenoxy}propanoic acid]
% Reduction TG [1]: 62% | % Reduction TC [1]: 70% | HDL % increase [1]: 132% | % reduction in TG (Male Swiss albino mice; 3 mg/kg orally for 6 days): 48%

melting point: 188 to 190 °C
SMILES: CCC(C)(Oc1ccc(OCc2cc(-c3ccc(-c4ccccc4)cc3)no2)cc1)C(=O)O (stereo not shown) [Example 19]

SMILES: O=C(O)[C@]1(Cc2ccc(OCc3cc(-c4ccc(C(F)(F)F)cc4)no3)cc2)CCCO1 [Example 37]
% Reduction TG [1]: 68% | % Reduction TC [1]: 69% | % Reduction LDL ([1]; LDL cholesterol calculated from TC, HDL, TG): 75% | HDL % increase [1]: 138% | % reduction in TG (Male Swiss albino mice; 3 mg/kg orally for 6 days): 69%

SMILES: CC[C@@](C)(Oc1ccc(OCc2cc(-c3ccc(OS(C)(=O)=O)cc3)no2)cc1)C(=O)O [Example 26]
% reduction in TG (Male Swiss albino mice; 1 mg/kg orally for 6 days): 50% | PPARα luciferase fold activation relative to untreated cells (human PPARα; 1 μM): 1.8 | PPARα luciferase fold activation relative to untreated cells (human PPARα; 10 μM): 5.7 | PPARα luciferase fold activation relative to untreated cells (human PPARα; 50 μM): 5.8 | PPARγ luciferase fold activation relative to untreated cells (human PPARγ1; 1 μM): 0.1 | PPARγ luciferase fold activation relative to untreated cells (human PPARγ1; 10 μM): 1.0 | PPARγ luciferase fold activation relative to untreated cells (human PPARγ1; 50 μM): 5.3

melting point: 70 to 74 °C | PPARα luciferase fold activation relative to untreated cells (human PPARα; 1 μM): 1.3 | PPARα luciferase fold activation relative to untreated cells (human PPARα; 10 μM): 2.6 | PPARα luciferase fold activation relative to untreated cells (human PPARα; 50 μM): 3.5 | PPARγ luciferase fold activation relative to untreated cells (human PPARγ1; 1 μM): 0.5 | PPARγ luciferase fold activation relative to untreated cells (human PPARγ1; 10 μM): 1.2 | PPARγ luciferase fold activation relative to untreated cells (human PPARγ1; 50 μM): 4.1
SMILES: CCC(C)(Oc1ccc(OCc2cc(-c3ccccc3)no2)cc1)C(=O)O (stereo not shown) [Example 8]
% reduction in TG (Male Swiss albino mice; 3 mg/kg orally for 6 days): 52%

PPARα luciferase fold activation relative to untreated cells (human PPARα; 1 μM): 1.1 (1.1) | PPARα luciferase fold activation relative to untreated cells (human PPARα; 10 μM): 3.9 | PPARα luciferase fold activation relative to untreated cells (human PPARα; 50 μM): 4.7 | PPARγ luciferase fold activation relative to untreated cells (human PPARγ1; 1 μM): 1.8 | PPARγ luciferase fold activation relative to untreated cells (human PPARγ1; 10 μM): 3.9 | PPARγ luciferase fold activation relative to untreated cells (human PPARγ1; 50 μM): 9.0
SMILES: O=C(O)C1(Cc2ccc(OCc3cc(-c4ccccc4)no3)cc2)CCCO1 (stereo not shown) [Example 39]
% reduction in TG (Male Swiss albino mice; 3 mg/kg orally for 6 days): 44%

melting point: 135 to 137 °C | PPARα luciferase fold activation relative to untreated cells (human PPARα; 1 μM): 0.8 | PPARα luciferase fold activation relative to untreated cells (human PPARα; 10 μM): 1.2 | PPARα luciferase fold activation relative to untreated cells (human PPARα; 50 μM): 1.7 | PPARγ luciferase fold activation relative to untreated cells (human PPARγ1; 1 μM): 1.2 | PPARγ luciferase fold activation relative to untreated cells (human PPARγ1; 10 μM): 0.9 | PPARγ luciferase fold activation relative to untreated cells (human PPARγ1; 50 μM): 2.4
SMILES: O=C(O)C1(Oc2ccc(OCc3cc(-c4ccccc4)no3)cc2)CCCC1 [Example 9]

melting point: 105 to 108 °C
SMILES: CC[C@@](C)(Oc1ccc(OCCCc2cc(-c3ccccc3)no2)cc1)C(=O)O [Example 15]
